Source: US12414951B2, “Use of compound in preparation of medicament for prophylaxis and treatment of inflammatory tissue damage” (Sichuan University, priority 2022, dated 2025)

Experiments:
[1] = test system: mouse primary skin cells; experiment: senescence of irradiated primary skin cells by β-galactosidase staining; format: cell-based; conditions: 10 μM for 24 h before irradiation; 20 Gy X-ray once; 3 days after irradiation; vs DMSO, P<0.01
Procedure: To determine whether IRSKIN-1 reduces the senescence rate of irradiated skin cells, mouse primary skin cell were isolated and cultured, cells were treated with 10 μM IRSKIN-1 or equivalent DMSO for 24 h before irradiation, respectively; subsequently, the cells were irradiated with 20 Gy X-ray once, and the effect of IRSKIN-1 on irradiated primary cell senescence was evaluated by β-galactosidase staining method 3 days after irradiation.

[2] = test system: inflammatory factors in irradiated skin tissue; experiment: inflammation microarray of irradiated skin tissue of treated mice; format: in vivo, mouse; conditions: s.c. treatment, FIG. 10
Procedure: (§1) Male C57 BL/6J mice aged 6-8 weeks were purchased from GemPharmatech Co., Ltd. The mice were acclimatized and randomized into two groups (6 mice per group); the mice were subcutaneously injected with IRSKIN-1 (which was dissolved in DMSO to prepare a 50 mM solution, 100 μL/time) and equivalent DMSO once 1 and 3 days before irradiation, respectively; based on 1% of the body weight of each mouse, the mouse was anesthetized by intraperitoneal injection of 1% chloral hydrate, the skin of hind limbs of the mouse was depilated, and the mouse was immobilized on a board to reduce accidental movements during irradiation.
(§2) The skin of limbs of mice was irradiated with 6 MeV electron ray generated by Varian 23EX Linear Accelerator (Varian, the USA); the surface was covered with a 1 cm thick bolus, and non-irradiated sites were shielded with a lead plate; the irradiation area was approximately 30×40 mm, the absorbed dose rate was 750 cGy/min, and the total dose was 45 Gy; and the range of the irradiated area was outlined with a marker pen during irradiation.

[3] = test system: irradiated skin cells; experiment: mortality of irradiated skin cells by AV/PI staining; format: cell-based; conditions: 10 μM for 24 h before irradiation; 20 Gy X-ray once; 3 days after irradiation; vs DMSO, P<0.01
Procedure: To determine whether IRSKIN-1 reduces the mortality of irradiated skin cells, cells were treated with 10 μM IRSKIN-1 or equivalent DMSO for 24 h before irradiation, respectively; subsequently, the cells were irradiated with 20 Gy X-ray once, and the effect of IRSKIN-1 on irradiated cell proliferation ability was evaluated by AV/PI staining method 3 days after irradiation.

[4] = test system: irradiated skin cells; experiment: colony formation test of irradiated skin cells; format: cell-based; conditions: 10 μM for 24 h before irradiation; X-ray 2 Gy once or twice or Sr 90 4 Gy once; vs DMSO, P<0.01
Procedure: To determine the promoting effect of IRF1 inhibitor IRSKIN-1 on irradiated skin cell proliferation, cells were treated with 10 μM IRSKIN-1 or equivalent DMSO for 24 h before irradiation, respectively; subsequently, the cells were subjected to fractionated irradiation at 2 Gy once or at 2 Gy twice or Sr 90 irradiation at 4 Gy once, respectively; subsequently, the effect of IRSKIN-1 on irradiated cell proliferation ability was evaluated by the colony formation test (2,500 cells were spread on each well of a 6-well plate).

[5] = test system: Caspase1, GSDMD and IL1 in irradiated skin cells; experiment: Western blot of pyroptosis pathway proteins in irradiated skin cells; format: cell-based; conditions: 10 μM for 24 h before irradiation, 20 Gy X-ray once
Procedure: To determine the mechanism of the inhibitory effect of IRF1 inhibitor IRSKIN-1 on inflammatory death in the irradiated skin cells, cells were treated with 10 μM IRSKIN-1 or equivalent DMSO for 24 h before irradiation, respectively; subsequently, the cells were irradiated with 20 Gy X-ray once, and changes in key proteins of cell pyroptosis pathway, Caspase1 and GSDMD, and inflammatory factor IL1 were detected by Western blot, so as to determine the inhibitory effect of IRSKIN-1 on inflammatory death in the irradiated skin cells and its mechanism.

[6] = test system: radiation-induced skin injury in C57 BL/6J mice; experiment: radiation-induced skin injury mouse model, subcutaneous injection; format: in vivo; conditions: 1 and 3 days before irradiation
Procedure: as §1, §2

[7] = target: T1, IRF1 (Homo sapiens, UniProt P10914); experiment: IRF1 transcriptional activity, dual-luciferase reporter system in irradiated HaCaT cells; format: cell-based; conditions: 10 μM 24 h before irradiation, X-ray 20 Gy, detection 1 h after irradiation, P<0.01
T1 construct: Human skin keratinocytes (HaCaT cells) were infected in vitro according to a titer of 100 MOI; endogenous in cells; host or cells: HaCaT human skin keratinocytes infected with an h-IRF1 promoter-rluc reporter adenovirus
T1 sequence (P10914 1-325): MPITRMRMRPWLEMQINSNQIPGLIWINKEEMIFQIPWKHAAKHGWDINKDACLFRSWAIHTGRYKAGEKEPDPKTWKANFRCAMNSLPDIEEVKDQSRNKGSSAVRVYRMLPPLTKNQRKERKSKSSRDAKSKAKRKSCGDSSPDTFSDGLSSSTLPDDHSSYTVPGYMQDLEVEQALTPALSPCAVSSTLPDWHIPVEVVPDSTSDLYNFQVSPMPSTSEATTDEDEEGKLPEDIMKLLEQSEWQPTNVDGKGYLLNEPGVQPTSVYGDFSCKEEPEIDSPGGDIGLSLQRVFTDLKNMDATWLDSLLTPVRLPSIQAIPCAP
Description: To determine the inhibitory effect of the compound (IRSKIN-1) on the transcriptional activity of IRF1, Hanbio Biotechnology (Shanghai) Co., Ltd. was entrusted to construct an h-IRF1 promoter-rluc adenovirus vector. The vector has four binding sites of IRF1, and the downstream of the promoter is a luciferase reporter gene. The virus was constructed based on a dual-luciferase reporter system, and the transcriptional activity of IRF1 could be directly reflected by the luciferase activity. Human skin keratinocytes (HaCaT cells) were infected in vitro according to a titer of 100 MOI, and the virus infection efficiency met the experimental requirement 48 h after infection.
A microplate reader PROMEGA and the corresponding substrates were used for detection 1 h after irradiation.

[8] = s.c. 50 mM in DMSO 100 μL/time, 45 Gy electron ray

irradiated IRF1 transcriptional activity (luciferase activity) vs DMSO-treated irradiation group [7]: significantly lower
SMILES: O=C(CCn1cnc2ccccc2c1=O)Nc1ccc(S(=O)(=O)N2CCCCC2)cc1 [IRSKIN-1, 3-(4-oxo-3 (4H)-quinazolinyl)-N-[4-(1-piperidinylsulfonyl)phenyl]propanamide]
β-galactosidase positive rate (senescence) of mouse primary cells [1]: reduce the β-galactosidase positive rate | expression of BLC in skin tissue [2]: downregulated | expression of G-CSF in skin tissue [2]: upregulated | expression of MIP-1a in skin tissue [2]: upregulated | expression of TNF-R II in skin tissue [2]: upregulated | cell mortality after X-ray irradiation (AV/PI staining) [3]: reduce cell mortality | clone formation ability of irradiated skin cells [4]: significantly improve | hydrolysis of Caspase1 [5]: inhibit the hydrolysis | hydrolysis of GSDMD [5]: inhibit the hydrolysis | hydrolysis of IL1 [5]: inhibit the hydrolysis | wet ulcers of the skin ([6]; s.c. 50 mM 100 μL/time, 45 Gy, FIG. 8, 15 and 30 days after irradiation): wet ulcers appeared in only fewer areas | progression scores of radiation-induced skin injury ([6]; s.c. 50 mM 100 μL/time, 45 Gy, FIG. 9): reducing progression scores | progression of radiation-induced skin injury vs DMSO group [6, 8]: slower | ulcer wound area vs DMSO group [6, 8]: smaller ulcer wound area
